This is an account of results in patent US20020111314A1, “Novel stimulation of gene expression and protein synthesis of heat shock protein 72/73 (Hsp 70)” (The Trustees of Columbia University, priority 1995, published 2002).

Square brackets hold non-standard residues; d marks the D form. Peptide text beside a SMILES is read from it. Nle = CCCC[C@H](N)C(=O)O

In one data set the test system is HSF1. As to the kind of experiment: HSF1 steady-state level and trimerization (Western blot, EGS cross-linking) in HepG2 cells. Type of data set: cell-based, human. As to conditions: ALLN 40 μg/ml, 2 hours. As for the experimental part:
HepG2 cells were treated with serum-free MEM containing 1.5% BSA for 2 hours at 37° C. without any additions (lane 1), at 37° C. but containing 40 μg/ml of ALLN in the medium (lane 2), at 37° C. in a medium containing both ALLN and 50 μg/ml of cycloheximide (lane 3), at 42° C. alone (lane 4), or at 42° C. plus cycloheximide in the medium (lane 5). Cell lysates were prepared as described under Experimental Details. The lysates were either directly run on the SDS-PAGE (A) to show the steady-state protein levels of HSF1 or subjected to cross-linking with ethylene glycol bis sucrinimidylsuccinate (EGS) before running the gel (B) to show the oligomeric forms of HSF1. The proteins were then transfered to a nitrocellulose membrane and immunoblotted with anti-human HSF1 antibody. Arrows on the right side indicates the monomeric, dimeric or trimeric forms of HSF1, respectively. This experiment was repeated three times with identical results.
Total RNA was prepared using the procedure of Chomczynski and Sacchi (Chomczynski, et al., 1987) and a commercially prepared reagent, TRISOLV™ (Biotecx Laboratories Inc., TX). Equal amounts of tRNA samples (10 μg) were size-fractionated on a 1% agarose-formaldehyde gel according to the methods described (Maniatis, et al., 1982) and transferred to a piece of QIAGEN plus nylon membrane. To determine loading and transfer efficiency, RNA was stained with ethidium bromide before and after transfer. The membrane was baked for 30 min. at 80° C. in vacuo (a vacuum) followed by UV cross-linking. It was then incubated for 4 hours at 65° C. in a prehybridization mixture containing 10% dextran sulfate, 1% SDS, 1M sodium chloride, 50 mM Tris-HCl (pH 7.5) and 100 μg/ml denatured salmon sperm DNA. Hybridization was carried out for 18 hours at 65° C. in the same buffer with a ^32P-labeled (1×10^6 cpm/ml) 40-mer oligonucleotide probe to the untranslated 5′ region of a human hsp70 gene (Oncogene Science). […] The membrane was then washed four times with 2×SSC, 0.1% SDS at room temperature, one time at 65° C. for 30 min., and one time at room temperature again for 5 min., and finally rinsed with 2×SSC at room temperature. This membrane was air dried and exposed to X-ray film at −80° C. for 48 hours. For measurement of the steady-state HSF1 protein levels, whole cell extracts were prepared by lysing the cells directly with 2×SDS-sample buffer (Maniatis, et al., 1982). For chemical cross-linking experiments, whole-cell extracts were prepared as described (Mosser, et al., 1988). Briefly, the cold PBS-washed cell pellets were quickly and repeatedly frozen in liquid nitrogen. […]
A general note: Immunoblotting shows a protein as a band on a membrane.

Data set [1] deals with cysteine proteases, calpain and cathepsin B. As to conditions: Rock, et al., 1994; cited from earlier work.
In the next data set the test system is HepG2 cells. As to the kind of experiment: Total incorporation of radiolabel (TCA cpm) as indicator of cell toxicity in HepG2 cells. It counts as cell-based, human. As to conditions: ALLN 10 μg/ml. As for the experimental part:
FIGS. 3A-3B: Effects of the other protease inhibitors on Hsp70 biosynthesis in HepG2 cells. HepG2 cells were preincubated in serum-free MEM containing either 1.5% BSA alone (Control), or BSA plus 40 μg/ml of ALLN, 40 μg/ml of ALLM, 50 μg/ml of leupeptin, 50 μg/ml of pepstatin A, 25 μg/ml of E-64d, 1 mM of phenylmethylsulfonyl fluoride (PMSF), 100 KIU/ml of apotinin, 1 mM of Benzamidine (Benz), 200 μM of calpain inhibitor peptide (CIP). Radiolabeling (in the presence of protease inhibitors), lysis and immunoprecipitation were performed as described in FIG. 1. The Hsp70 specific radioactivity (A) and the amount of total incorporated radioactivity (TCA-cpm) (B) were compared with each other. All the values were presented as the mean±SD from three individual culture dishes.
Preincubation and labeling media each contained either 1.5% bovine serum albumin (BSA) alone, or BSA plus ALLN (40 μg/ml except as otherwise indicated), or BSA plus other protease inhibitors at concentrations indicated in the figure legends. At the indicated times, cells were removed from the 37° C. incubator and placed on ice, washed with cold phosphate-buffer saline (PBS) twice and lysed with lysis buffer containing 1% Triton X-100 (TX100), 1% deoxycholic acid (DOC) and 0.1% SDS in PBS containing proteinase inhibitors: 2 mM phenylmethylsulfonyl fluoride (PMSF); 2 μg/ml ALLN; 2 μg/ml leupeptin; and 2 μg/ml aprotinin. After a 30 min. incubation with lysis buffer at 4° C., the lysates were centrifuged at 14,000 g in a microcentrifuge for 5 min., and the supernatants were adjusted to 1% SDS concentration and boiled for 5 min. to denature the proteins. 1% TX100 was then added to dilute the lysates to a final concentration of 0.1% SDS. Cell lysates containing equal amounts of trichloroacetic acid (TCA)-insoluble radioactivity were used for immunoprecipitations by incubating with individual monoclonal antibody (1 μg/ml) for 2.5 hours at 4° C. Protein-A Sepharose 4B was added afterwards and the lysates incubated for another 1.5 hours at 4° C. to collect the immunocomplexes. […]

Consider `CCCC[C@@H](C=O)NC(=O)[C@H](CC(C)C)NC(=O)[C@H](CC(C)C)NC(C)=O` [ALLN, N-acetyl-leucyl-leucyl-norleucinal] (Ac-Leu-Leu-[Nle]-aldehyde), for which, in the data set with HSF1 (270-kDa cross-linked product), the “oligomeric form of HSF1 after EGS cross-linking” value is on record as “exists as a trimer”. Further, in the data set on HSF1 (with or without cycloheximide), the “steady-state levels of HSF1 in whole cell extracts” value is “not significantly affected”. For the same compound, the “activities against calpain and cathepsin B” value in data set [1] was “significant activities”. Besides, the “cell total incorporation of radiolabel (TCA cpm, indicator of cell toxicity)” value with HepG2 cells was “did not change significantly”.
